Assay results: PMC10017821, “Polycystic kidney disease 2-like 1 channel contributes to the bitter aftertaste perception of quinine” (Scientific Reports, 2023)

Biological target: T1, PKD2L1 (polycystic kidney disease 2-like 1 channel) (Mus musculus, UniProt A2A259)
T1 construct: mouse PKD2L1 in pCINeo/IRES-GFP, transiently expressed in HEK293T cells; no PKD1L3 co-expression mentioned; homotetramer (known biology)
T1 sequence (A2A259 1-760): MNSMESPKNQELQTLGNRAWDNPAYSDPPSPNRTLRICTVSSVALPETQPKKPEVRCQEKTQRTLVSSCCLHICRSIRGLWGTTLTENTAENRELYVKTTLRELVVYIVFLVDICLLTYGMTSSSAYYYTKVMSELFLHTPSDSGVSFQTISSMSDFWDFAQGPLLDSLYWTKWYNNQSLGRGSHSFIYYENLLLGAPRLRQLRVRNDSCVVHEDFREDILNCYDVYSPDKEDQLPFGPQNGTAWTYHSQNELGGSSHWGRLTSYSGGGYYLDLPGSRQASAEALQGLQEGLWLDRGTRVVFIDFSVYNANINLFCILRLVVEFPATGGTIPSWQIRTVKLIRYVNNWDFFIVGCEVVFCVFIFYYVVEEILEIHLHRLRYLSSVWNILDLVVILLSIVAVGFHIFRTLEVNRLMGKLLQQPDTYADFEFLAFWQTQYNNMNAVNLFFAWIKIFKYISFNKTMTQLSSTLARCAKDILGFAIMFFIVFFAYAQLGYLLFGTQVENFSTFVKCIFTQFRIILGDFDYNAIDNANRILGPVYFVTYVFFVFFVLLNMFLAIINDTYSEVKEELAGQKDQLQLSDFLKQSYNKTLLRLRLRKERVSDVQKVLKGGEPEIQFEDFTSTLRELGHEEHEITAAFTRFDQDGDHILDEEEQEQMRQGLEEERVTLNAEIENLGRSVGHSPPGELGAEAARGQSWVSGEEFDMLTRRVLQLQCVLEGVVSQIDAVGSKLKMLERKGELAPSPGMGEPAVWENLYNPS
Test: whole-cell patch clamp, channel activity (NPo) at -60 mV
Format: cell-based

Question: For C=C[C@H]1C[N@@]2CC[C@H]1C[C@H]2[C@H](O)c1ccnc2ccc(OC)cc12 [quinine], which EC50 is on record?
Answer: 33 µM
